Results published in ChEMBL document CHEMBL1146046, “Synthesis and biological evaluations of sulfanyltriazoles as novel HIV-1 non-nucleoside reverse transcriptase inhibitors” (Bioorg Med Chem Lett, 2006).

Experiments:
Assay type in all cases: functional, organism-based
[1] = tested on: Human immunodeficiency virus 1; assay: Antiviral activity against HIV1
[2] = tested on: Human immunodeficiency virus 1; assay: Antiviral activity against HIV1 NNTRI resistant L100I mutant
[3] = tested on: Human immunodeficiency virus 1; assay: Antiviral activity against HIV1 NNTRI resistant K103N mutant
[4] = tested on: Human immunodeficiency virus 1; assay: Antiviral activity against HIV1 NNTRI resistant Y181C mutant
[5] = tested on: Human immunodeficiency virus 1; assay: Antiviral activity against HIV1 NNTRI resistant Y188L mutant
[6] = tested on: Human immunodeficiency virus 1; assay: Antiviral activity against HIV1 NNTRI resistant K103N/L100I mutant

| Structure (SMILES) | EC50 [1] [nM] | IC50 [1] [nM] | EC50 [2] [nM] | EC50 [3] [nM] | EC50 [4] [nM] | EC50 [5] [nM] | EC50 [6] [nM] |
| --- | --- | --- | --- | --- | --- | --- | --- |
| CCn1c(C)nnc1SCC(=O)Nc1ccccc1Cl | > 10000 | > 10000 |  |  |  |  |  |
| Cc1ccc(-n2c(C)nnc2SCC(=O)N2CCCCC2)cc1 | > 10000 | > 10000 |  |  |  |  |  |
| Cc1ccc(-n2c(C)nnc2SC/C(S)=N/c2ccccc2Cl)cc1 | > 10000 | > 10000 |  |  |  |  |  |
| Cc1nnc(SCC(=O)Nc2ccccc2Cl)n1Cc1ccccc1 | 3410 | > 10000 |  |  |  |  |  |
| Cc1ccc(-n2c(C)nnc2SCC(=O)Nc2ccc(Cl)cc2)cc1 | 1360 | > 10000 |  |  |  |  |  |
| COc1ccccc1-n1c(C)nnc1SCC(=O)Nc1ccccc1Cl | 59 | > 10000 | 100 | 1120 | 1050 | > 1650 |  |
| Cc1ccc(-n2c(C)nnc2SCC(=O)Nc2ccccc2)cc1 | 2050 | > 10000 |  |  |  |  |  |
| Cc1ccc(-n2c(C)nnc2SCC(=O)Nc2ccccn2)cc1 | > 10000 | > 10000 |  |  |  |  |  |
| Cc1ccc(-n2c(C)nnc2SCC(=O)Nc2ccccc2C)cc1 | 112 | > 10000 |  |  |  |  |  |
| Cc1ccc(NC(=O)CSc2nnc(C)n2-c2ccc(C)cc2)cc1 | > 10000 | > 10000 |  |  |  |  |  |
| Cc1ccc(-n2c(C)nnc2SCC(=O)Nc2ccc(C#N)cc2)cc1 | > 10000 | > 10000 |  |  |  |  |  |
| Cc1ccc(-n2c(C)nnc2SCC(=O)Nc2cccc(Br)c2)cc1 | > 10000 | > 10000 |  |  |  |  |  |
| Cc1ccc(-n2c(C)nnc2SCC(=O)Nc2cccc(C#N)c2)cc1 | > 10000 | > 10000 |  |  |  |  |  |
| Cc1ccc(-n2c(C)nnc2SCC(=O)Nc2cc(Cl)ccc2Cl)cc1 | 37 | > 10000 | 835 | 1040 | 769 | > 10000 |  |
| CC(=O)N1CCN(C(=O)CSc2nnc(C)n2-c2ccc(C)cc2)CC1 | > 10000 | > 10000 |  |  |  |  |  |
| Cc1ccc(-n2c(C)nnc2SCC(=O)Nc2ccccc2C#N)cc1 | 170 | > 10000 |  |  |  |  |  |
| Cc1ccc(-n2c(C)nnc2SCC(=O)Nc2ccc(Br)cc2)cc1 | > 10000 | > 10000 |  |  |  |  |  |
| Cc1ccc(-n2c(C)nnc2SCC(=O)Nc2ccc([N+](=O)[O-])cc2)cc1 | > 10000 | > 10000 |  |  |  |  |  |
| Cc1ccc(-n2c(C)nnc2SCC(=O)Nc2ccccc2F)cc1 | 68 | > 10000 | 1380 | 3270 | 4030 | > 10000 |  |
| COc1cccc(NC(=O)CSc2nnc(C)n2-c2ccc(C)cc2)c1 | 22 | > 10000 | 31 | 82 | 161 | 2190 |  |
| COc1ccc(NC(=O)CSc2nnc(C)n2-c2ccc(C)cc2)cc1 | 1840 | > 10000 |  |  |  |  |  |
| Cc1ccc(-n2c(C)nnc2SCC(=O)Nc2ccccc2Br)cc1 | > 10000 | > 10000 |  |  |  |  |  |
| Cc1ccc(-n2c(COc3ccccc3)nnc2SCC(=O)Nc2ccccc2Cl)cc1 | 1070 | > 10000 |  |  |  |  |  |
| Cc1ccc(-n2c(SCC(=O)Nc3ccccc3Cl)nnc2-c2ccncc2)cc1 | 4210 | > 10000 |  |  |  |  |  |
| COc1ccccc1-c1nnc(SCC(=O)Nc2ccccc2Cl)n1-c1ccc(C)cc1 | 2070 | > 10000 |  |  |  |  |  |

| Structure (SMILES) | EC50 [1] [nM] | IC50 [1] [nM] | EC50 [2] [nM] | EC50 [3] [nM] | EC50 [4] [nM] | EC50 [5] [nM] | EC50 [6] [nM] |
| --- | --- | --- | --- | --- | --- | --- | --- |
| Cc1ccc(-n2c(C)nnc2SCC(=O)Nc2ccc3ccccc3c2)cc1 | 412 | > 10000 |  |  |  |  |  |
| CCCCCCCCCNC(=O)CSc1nnc(C)n1-c1ccc(C)cc1 | > 10000 | > 10000 |  |  |  |  |  |
| Cc1ccc(-n2c(C)nnc2SCC(=O)NC(C)(C)C)cc1 | > 10000 | > 10000 |  |  |  |  |  |
| COC(=O)c1cccc(NC(=O)CSc2nnc(C)n2-c2ccc(C)cc2)c1 | > 10000 | > 10000 |  |  |  |  |  |
| Cc1ccc(-n2c(C)nnc2SCC(=O)Nc2cccc(C)c2C)cc1 | 128 | > 10000 |  |  |  |  |  |
| Cc1ccc(-n2c(C)nnc2SCC(=O)Nc2ccc(Cl)cc2C)cc1 | 215 | > 10000 |  |  |  |  |  |
| Cc1ccc(-n2c(C)nnc2SCC(=O)Nc2ccccc2C(F)(F)F)cc1 | 72 | > 10000 | 488 | 1510 | 1380 | > 10000 |  |
| Cc1ccc(-n2c(C)nnc2SCC(=O)Nc2cccc([N+](=O)[O-])c2)cc1 | > 10000 | > 10000 |  |  |  |  |  |
| Cc1nnc(SCC(=O)Nc2ccccc2Cl)n1-c1cccc2c1OCCO2 | 18 | > 10000 | 170 | 565 | 219 | > 3330 |  |
| COC(=O)c1ccc(NC(=O)CSc2nnc(C)n2-c2ccc(C)cc2)cc1 | 822 | > 10000 |  |  |  |  |  |
| Cc1ccc(-n2c(SCC(=O)Nc3ccccc3Cl)nnc2-c2ccc(Cl)cc2)cc1 | 3780 | > 10000 |  |  |  |  |  |
| Cc1ccc(-n2c(Cc3ccccc3)nnc2SCC(=O)Nc2ccccc2Cl)cc1 | 1420 | > 10000 |  |  |  |  |  |
| Cc1ccc(-n2c(C)nnc2SCC(=O)Nc2ccncn2)cc1 | > 10000 | > 10000 |  |  |  |  |  |
| Cc1ccc(-n2c(C)nnc2SCC(=O)Nc2ccccc2Cl)cc1 | 3 | > 10000 |  | 65 | 23 | 4310 | 182 |
| Cc1ccc(-n2c(C)nnc2SCC(=O)Nc2ccc(Cl)cc2Cl)cc1 | 20 | > 10000 | 186 | 577 | 440 | > 3330 |  |
| COc1ccc(-n2c(C)nnc2SCC(=O)Nc2ccccc2Cl)cc1 | 79 | > 10000 | 1230 | 913 | 1430 | > 3330 |  |
| Cc1nnc(SCC(=O)Nc2ccccc2Cl)n1C | > 10000 | > 10000 |  |  |  |  |  |
| Cc1nnc(SCC(=O)Nc2ccccc2Cl)n1-c1ccccc1 | 310 | > 10000 |  |  |  |  |  |
| Cc1ccc(-n2c(C)nnc2SCC(=O)N2CCOCC2)cc1 | > 10000 | > 10000 |  |  |  |  |  |
| COC(=O)c1ccccc1NC(=O)CSc1nnc(C)n1-c1ccc(C)cc1 | 614 | > 10000 |  |  |  |  |  |
| Cc1ccc(-n2c(C)nnc2SCC(=O)Nc2cccc(C(F)(F)F)c2)cc1 | 2870 | > 10000 |  |  |  |  |  |
| Cc1ccc(-n2c(C)nnc2SCC(=O)N(C)c2ccccc2Cl)cc1 | > 10000 | > 10000 |  |  |  |  |  |
| Cc1ccc(-n2c(C)nnc2SCC(=O)Nc2ccccc2[N+](=O)[O-])cc1 | 1 | > 10000 |  | 6 | 16 | 3600 | 24 |
| O=C1Nc2ccc(Cl)cc2C(C#CC2CC2)(C(F)(F)F)O1 (single isomer, unassigned) [EFAVIRENZ] |  | 10000 | 13 | 19 |  |  |  |
| Cc1ccnc2c1NC(=O)c1cccnc1N2C1CC1 [NEVIRAPINE] |  | > 10000 |  |  | > 10000 | > 10000 |  |
